{
  "source": "ChEMBL document CHEMBL4364299",
  "about": "“Discovery of a Potent Kelch-Like ECH-Associated Protein 1-Nuclear Factor Erythroid 2-Related Factor 2 (Keap1-Nrf2) Protein-Protein Interaction Inhibitor with Natural Proline Structure as a Cytoprotective Agent against Acetaminophen-Induced Hepatotoxicity” (J Med Chem, 2019)",
  "key": {"[1]": {"target": "T1, Nuclear factor erythroid 2-related factor 2 (Homo sapiens) (UniProt Q16236)", "T1 sequence (whole entry)": "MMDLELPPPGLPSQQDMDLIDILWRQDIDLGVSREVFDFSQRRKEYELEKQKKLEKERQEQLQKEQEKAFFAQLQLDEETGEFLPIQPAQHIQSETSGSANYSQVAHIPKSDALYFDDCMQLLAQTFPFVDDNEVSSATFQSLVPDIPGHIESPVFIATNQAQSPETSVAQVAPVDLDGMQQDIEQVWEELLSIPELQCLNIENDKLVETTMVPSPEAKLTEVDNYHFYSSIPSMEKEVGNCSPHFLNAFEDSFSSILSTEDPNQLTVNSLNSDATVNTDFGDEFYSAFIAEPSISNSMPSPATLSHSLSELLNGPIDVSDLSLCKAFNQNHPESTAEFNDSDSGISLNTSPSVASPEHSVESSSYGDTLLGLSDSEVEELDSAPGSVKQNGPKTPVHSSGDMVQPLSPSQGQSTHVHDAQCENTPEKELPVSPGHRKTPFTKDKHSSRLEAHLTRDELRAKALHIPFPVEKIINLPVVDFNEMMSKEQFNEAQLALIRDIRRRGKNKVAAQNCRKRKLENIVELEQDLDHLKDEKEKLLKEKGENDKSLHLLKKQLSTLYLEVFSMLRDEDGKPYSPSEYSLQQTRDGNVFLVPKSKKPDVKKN", "experiment": "Activation of Nrf2 in human L02 cells assessed as increase in NEFL2L expression at 10 uM measured after 4 to 72 hrs hrs by Western blot analysis", "type": "cell-based"}, "[2]": {"target": "T1, Nuclear factor erythroid 2-related factor 2 (Homo sapiens)", "experiment": "Activation of Nrf2 in human L02 cells harboring control siRNA assessed as increase in NEFL2L expression at 10 uM measured after 10 hrs by Western blot analysis", "type": "cell-based"}, "[3]": {"target": "T1, Nuclear factor erythroid 2-related factor 2 (Homo sapiens)", "experiment": "Activation of Nrf2 in human L02 cells harboring control siRNA assessed as increase in NQO-1 mRNA expression at 10 uM measured after 10 hrs by trizol reagent based qRT-PCR analysis", "type": "cell-based"}, "[4]": {"system": "L02", "experiment": "Cytoprotective activity against APAP-induced oxidative stress in human L02 cells assessed as decrease in ALT level at 5 to 10 uM preincubated for 12 hrs followed by APAP stimulation and measured after 24 hrs", "type": "functional, cell-based"}, "[5]": {"system": "L02", "experiment": "Cytoprotective activity against APAP-induced oxidative stress in human L02 cells assessed as decrease in ALP level at 5 to 10 uM preincubated for 12 hrs followed by APAP stimulation and measured after 24 hrs", "type": "functional, cell-based"}, "[6]": {"system": "L02", "experiment": "Upregulation of NEFL2L expression in human L02 cells harboring Nrf2 siRNA at 10 uM measured after 10 hrs by Western blot analysis", "type": "functional, cell-based"}, "[7]": {"system": "L02", "settings": "Homo sapiens, 5 to 10 uM", "description": "Cytoprotective activity against APAP-induced hepatotoxicity in human L02 cells assessed as inhibition of IL1beta production at 5 to 10 uM preincubated for 12 hrs followed by APAP stimulation and measured after 24 hrs by ELISA"}, "[8]": {"target": "T1, Nuclear factor erythroid 2-related factor 2 (Homo sapiens)", "experiment": "Activation of Nrf2 in human L02 cells assessed as increase in NQO-1 mRNA expression measured after 12 hrs by trizol reagent based qRT-PCR analysis", "type": "cell-based"}, "[9]": {"system": "Mus musculus", "experiment": "Protection against APAP-induced hepatotoxicity in C57BL/6 mouse assessed as decrease in NQO1 expression in liver at 10 to 40 mg/kg, ip treated 2 hrs prior to 22 hrs starvation followed by APAP challenge and measured after 6 hrs by Dako/Mayer's hematoxylin staining-based immunohistochemical analysis", "type": "functional, organism-based"}, "[10]": {"system": "Mus musculus", "experiment": "Protection against APAP-induced hepatotoxicity in C57BL/6 mouse assessed as decrease in MPO activity in liver at 10 to 40 mg/kg, ip treated 2 hrs prior to 22 hrs starvation followed by APAP challenge and measured after 6 hrs", "type": "functional, organism-based"}, "[11]": {"target": "T1, Nuclear factor erythroid 2-related factor 2 (Homo sapiens)", "experiment": "Activation of Nrf2 in human L02 cells assessed as increase in NQO-1 expression measured after 12 hrs by Western blot analysis", "type": "cell-based"}},
  "note": "Activity calls are given as the source filed them. The rule behind the calls is not given here.",
  "data": [
    {"smiles": "COc1ccc(S(=O)(=O)N(CC(=O)O)c2ccc(N3CCC[C@H]3C(=O)O)c3ccccc23)cc1", "values": [
      {"measurement": "Activity", "setting": "[1]", "value": "Active"},
      {"measurement": "Activity", "setting": "[2]", "value": "Active"},
      {"measurement": "Activity", "setting": "[3]", "value": "Active"},
      {"measurement": "Activity", "setting": "[4]", "value": "Active"},
      {"measurement": "Activity", "setting": "[5]", "value": "Active"},
      {"measurement": "Activity", "setting": "[6]", "value": "inactive"},
      {"measurement": "inhibition", "setting": "[7]", "value": "Active"},
      {"measurement": "Activity", "setting": "[8]", "value": "Dose-dependent effect"},
      {"measurement": "Activity", "setting": "[9]", "value": "Active"},
      {"measurement": "Activity", "setting": "[10]", "value": "Active"},
      {"measurement": "Activity", "setting": "[11]", "value": "Dose-dependent effect"}
    ]}
  ]
}
